Experimental data as given in patent US20250170248A1, “SMARCA DEGRADERS AND USES THEREOF” (Kymera Therapeutics, Inc., priority 2021, published 2025).

How the values were obtained:
Format in all cases: cell-based
SMARCA2 [1] = target: T1, SMARCA2 (Homo sapiens, UniProt P51531); test: MSD SMARCA2 degradation in A549 cell line; details: for Dmax: A549, A549 cells; for Dmax / DC50: 24 h; for DC50: read-out: SMARCA2 MSD A549 degradation 24 h: Average external-Abs DC50
Method in brief: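 SMARCA2 protein remaining after 24 h exposure of A549 cells (top concentration 1000 nM, 3-fold dilutions) was measured by MSD electrochemiluminescence immunoassay of cell lysates. Results are given as binned DC50 and maximal degradation (Dmax) codes.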

SMARCA2 [2] = target: T1, SMARCA2; test: SMARCA2 Western blot degradation in MV4-11 cells; set-up: SMARCA2/SMARCA4 protein degradation selectivity in MV4-11 cells; endogenous in cells; host or cells: MV4-11; details: for Dmax: MV4-11, MV4-11 cells, read-out: SMARCA2 MSD MV411 degradation 24 h: average Dmax %; for DC50: read-out: SMARCA2 MSD MV411 degradation 24 h: Mean external-Abs DC50; for Selectivity in MV411: SMARCA2/4 selectivity
SMARCA4 = target: T2, SMARCA4 (Homo sapiens, UniProt P51532); test: SMARCA4 Western blot degradation in MV4-11 cells; details: for Dmax: MV4-11, MV4-11 cells, read-out: SMARCA4 MSD MV411 degradation 24 h: average Dmax %; for Dmax / DC50: 24 h; for DC50: read-out: SMARCA4 MSD MV411 degradation 24 h: Mean external-Abs DC50
T2 construct: SMARCA2/SMARCA4 protein degradation selectivity in MV4-11 cells; endogenous in cells; host or cells: MV4-11
Method in brief: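 Fluorescent LI-COR imaging of Western blots quantified SMARCA2 and SMARCA4 protein remaining in MV4-11 cells after 24 h of compound treatment. β-actin was the loading control, and DC50, Dmax and SMARCA2/4 selectivity are given as letter-coded ranges.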

T2 sequence (P51532 whole entry): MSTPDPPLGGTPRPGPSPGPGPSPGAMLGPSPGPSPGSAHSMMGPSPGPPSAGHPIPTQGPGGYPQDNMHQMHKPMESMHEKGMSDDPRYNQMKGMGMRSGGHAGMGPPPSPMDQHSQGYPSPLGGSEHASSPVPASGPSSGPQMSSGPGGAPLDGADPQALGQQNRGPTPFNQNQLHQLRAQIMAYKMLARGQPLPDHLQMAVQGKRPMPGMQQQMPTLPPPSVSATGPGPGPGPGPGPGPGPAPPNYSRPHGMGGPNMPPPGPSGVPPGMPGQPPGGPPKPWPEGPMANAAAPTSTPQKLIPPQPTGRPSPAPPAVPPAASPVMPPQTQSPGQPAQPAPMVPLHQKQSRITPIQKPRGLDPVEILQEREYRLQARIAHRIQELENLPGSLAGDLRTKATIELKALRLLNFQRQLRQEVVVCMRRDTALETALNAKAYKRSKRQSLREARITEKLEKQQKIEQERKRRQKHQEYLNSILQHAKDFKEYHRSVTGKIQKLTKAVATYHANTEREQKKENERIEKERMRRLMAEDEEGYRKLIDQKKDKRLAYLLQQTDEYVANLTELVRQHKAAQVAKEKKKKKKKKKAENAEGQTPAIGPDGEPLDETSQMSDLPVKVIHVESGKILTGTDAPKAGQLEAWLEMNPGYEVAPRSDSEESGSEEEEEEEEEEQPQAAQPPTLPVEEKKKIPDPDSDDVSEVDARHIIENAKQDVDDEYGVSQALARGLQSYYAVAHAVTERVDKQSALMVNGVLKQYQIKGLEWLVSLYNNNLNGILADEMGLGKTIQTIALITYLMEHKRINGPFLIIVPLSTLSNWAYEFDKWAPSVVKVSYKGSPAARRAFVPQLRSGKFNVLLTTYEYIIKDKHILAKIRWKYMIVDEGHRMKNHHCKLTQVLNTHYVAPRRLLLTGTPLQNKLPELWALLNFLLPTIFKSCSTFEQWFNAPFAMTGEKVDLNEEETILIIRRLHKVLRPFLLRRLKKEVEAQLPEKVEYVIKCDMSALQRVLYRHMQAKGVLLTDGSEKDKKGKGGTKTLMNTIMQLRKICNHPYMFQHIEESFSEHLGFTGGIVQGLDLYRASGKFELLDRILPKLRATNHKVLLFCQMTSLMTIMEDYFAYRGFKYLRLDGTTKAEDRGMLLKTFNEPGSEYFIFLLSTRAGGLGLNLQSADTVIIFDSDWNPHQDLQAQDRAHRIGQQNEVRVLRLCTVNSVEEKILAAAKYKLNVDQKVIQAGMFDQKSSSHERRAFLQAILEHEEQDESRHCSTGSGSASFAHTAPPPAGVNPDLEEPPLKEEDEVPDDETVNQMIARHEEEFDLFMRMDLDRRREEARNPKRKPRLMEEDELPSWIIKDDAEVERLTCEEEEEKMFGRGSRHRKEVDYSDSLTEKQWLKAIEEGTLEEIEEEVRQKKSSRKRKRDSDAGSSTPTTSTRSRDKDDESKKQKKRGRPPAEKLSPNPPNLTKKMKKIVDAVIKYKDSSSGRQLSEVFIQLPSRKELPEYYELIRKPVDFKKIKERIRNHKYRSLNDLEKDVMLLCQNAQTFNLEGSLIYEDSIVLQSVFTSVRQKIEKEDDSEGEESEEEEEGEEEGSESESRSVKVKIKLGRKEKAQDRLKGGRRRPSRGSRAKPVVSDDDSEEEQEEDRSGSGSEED
T1 sequence (P51531 whole entry): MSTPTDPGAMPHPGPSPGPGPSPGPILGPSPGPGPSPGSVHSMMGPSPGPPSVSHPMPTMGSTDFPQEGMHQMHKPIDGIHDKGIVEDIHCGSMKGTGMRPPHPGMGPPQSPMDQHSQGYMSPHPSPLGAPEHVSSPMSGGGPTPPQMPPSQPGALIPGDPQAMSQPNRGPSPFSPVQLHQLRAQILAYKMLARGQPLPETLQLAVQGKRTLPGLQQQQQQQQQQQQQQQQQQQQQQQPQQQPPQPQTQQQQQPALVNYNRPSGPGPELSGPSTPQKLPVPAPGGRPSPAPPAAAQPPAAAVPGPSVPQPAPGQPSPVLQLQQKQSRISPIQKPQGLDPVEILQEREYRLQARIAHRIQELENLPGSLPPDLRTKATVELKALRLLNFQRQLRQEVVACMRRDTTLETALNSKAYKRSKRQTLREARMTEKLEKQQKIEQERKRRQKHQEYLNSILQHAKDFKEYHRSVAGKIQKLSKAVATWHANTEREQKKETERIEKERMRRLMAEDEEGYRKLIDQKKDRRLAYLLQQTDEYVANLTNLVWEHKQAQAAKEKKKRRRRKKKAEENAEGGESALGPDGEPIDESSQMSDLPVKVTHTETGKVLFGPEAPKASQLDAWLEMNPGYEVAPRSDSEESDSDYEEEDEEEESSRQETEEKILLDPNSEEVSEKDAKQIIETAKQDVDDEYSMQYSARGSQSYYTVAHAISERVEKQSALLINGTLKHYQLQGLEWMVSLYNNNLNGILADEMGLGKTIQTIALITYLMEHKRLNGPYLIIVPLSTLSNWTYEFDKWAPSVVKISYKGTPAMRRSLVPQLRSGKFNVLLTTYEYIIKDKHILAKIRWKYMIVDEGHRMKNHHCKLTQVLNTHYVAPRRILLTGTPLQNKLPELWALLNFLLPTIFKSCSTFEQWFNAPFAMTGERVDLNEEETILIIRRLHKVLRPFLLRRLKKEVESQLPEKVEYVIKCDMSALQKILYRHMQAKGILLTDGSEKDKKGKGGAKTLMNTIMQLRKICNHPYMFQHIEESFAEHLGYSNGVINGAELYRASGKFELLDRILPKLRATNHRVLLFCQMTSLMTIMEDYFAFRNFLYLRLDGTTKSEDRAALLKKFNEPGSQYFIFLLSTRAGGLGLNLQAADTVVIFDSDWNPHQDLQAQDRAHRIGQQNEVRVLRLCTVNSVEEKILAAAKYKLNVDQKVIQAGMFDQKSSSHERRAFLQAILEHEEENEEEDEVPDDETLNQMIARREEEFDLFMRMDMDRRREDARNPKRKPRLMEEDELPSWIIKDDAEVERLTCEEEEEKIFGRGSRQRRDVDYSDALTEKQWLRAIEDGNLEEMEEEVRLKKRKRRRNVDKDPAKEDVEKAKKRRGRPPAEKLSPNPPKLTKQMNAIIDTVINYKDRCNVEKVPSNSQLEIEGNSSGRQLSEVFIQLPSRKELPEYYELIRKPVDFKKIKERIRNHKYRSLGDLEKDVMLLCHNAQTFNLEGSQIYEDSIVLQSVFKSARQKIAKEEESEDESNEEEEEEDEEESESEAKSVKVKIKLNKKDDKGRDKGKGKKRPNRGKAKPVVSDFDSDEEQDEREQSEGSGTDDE

| Dmax (SMARCA2 [1]) [%] | DC50 (SMARCA2 [1]; A549 cells) [nM] | Dmax (SMARCA2 [2]; 24 h) [%] | DC50 (SMARCA2 [2]; MV4-11 cells, 24 h) [nM] | Selectivity in MV411 (SMARCA2 [2]; MV4-11 cells) | Dmax (SMARCA4) [%] | DC50 (SMARCA4; MV4-11 cells) [nM] | SMARCA2 MSD A549 degradation 24 h: Average Dmax % (SMARCA2 [1]; A549 cells) | SMARCA2 MSD MV411 degradation 24 h: average Dmax % (SMARCA2 [2]; MV4-11 cells, 24 h) | SMARCA4 MSD MV411 degradation 24 h: average Dmax % (SMARCA4; MV4-11 cells) | SMILES |
| --- | --- | --- | --- | --- | --- | --- | --- | --- | --- | --- |
| > 90 | 10 to 50 | 70 to 90 | 1 to 10 | A (A (>500 fold)) | < 50 | > 100 |  |  |  | C#Cc1ccc(CNC(=O)[C@@H]2C[C@@H](O)CN2C(=O)[C@@H](NC(=O)[C@H]2CCC3(CC2)C[C@H](N2CCC(c4cnc(N5CCN6c7cc(-c8ccccc8O)nnc7NC[C@H]6C5)nc4)CC2)C3)C(C)(C)C)c(F)c1 (single isomer, unassigned) [I-97] |
| > 90 | < 10 | > 90 | < 1 | C (C (10-100 fold)) | > 90 | 1 to 10 |  |  |  | C#Cc1ccc([C@H](C)NC(=O)[C@@H]2C[C@@H](O)CN2C(=O)C(c2cc(N3CC4(CC(N5CCC(N6CCC(N7CCN8c9cc(-c%10ccccc%10O)nnc9NC[C@H]8C7)CC6)CC5)C4)C3)no2)C(C)C)cc1 (stereo partly drawn) [I-332] |
| 70 to 90 | > 100 | 70 to 90 | 10 to 100 | C (C (10-100 fold)) | 50 to 70 | > 100 |  |  |  | Cc1ncsc1-c1ccc(CNC(=O)[C@@H]2C[C@@H](O)CN2C(=O)[C@@H](NC(=O)[C@H]2CCC3(CC2)C[C@H](N2CCC4(CC2)CN(C(=O)N2CCN5c6cc(-c7ccccc7O)nnc6NC[C@H]5C2)CCO4)C3)C(C)(C)C)cc1 (single isomer, unassigned) [I-133] |
| > 90 | 10 to 50 | > 90 | 10 to 100 | C (C (10-100 fold)) | 70 to 90 | > 100 |  |  |  | C#Cc1ccc([C@H](C)NC(=O)[C@@H]2C[C@@H](O)CN2C(=O)[C@@H](NC(=O)N2CC3(C2)CN(C2CCN(c4cnc(N5CCc6[nH]c7nnc(-c8ccccc8O)cc7c6[C@H]5C)nc4)CC2)C3)C(C)(C)C)cc1 [I-249] |
| > 90 | < 10 | > 90 | < 1 | C (C (10-100 fold)) | > 90 | < 1 |  |  |  | C#Cc1ccc([C@H](CO)NC(=O)[C@@H]2C[C@@H](O)CN2C(=O)[C@@H](NC(=O)N2CC3(CC(N4CCC(c5cnc(N6CCc7[nH]c8nnc(-c9ccccc9O)cc8c7[C@H]6C)nc5)CC4)C3)C2)C(C)(C)C)cc1 [I-168] |
| > 90 | 50 to 100 | 70 to 90 | 10 to 100 | C (C (10-100 fold)) | < 50 | > 100 |  |  |  | Cc1ncsc1-c1ccc(CNC(=O)[C@@H]2C[C@@H](O)CN2C(=O)[C@@H](NC(=O)[C@H]2CC[C@H](c3ccc(-c4cnc(N5CCN6c7cc(-c8ccccc8O)nnc7NC[C@H]6C5)nc4)cc3)CC2)C(C)(C)C)cc1 [I-85] |
| > 90 | < 10 | > 90 | 1 to 10 | C (C (10-100 fold)) | 70 to 90 | 10 to 100 |  |  |  | C#Cc1ccc(CNC(=O)[C@@H]2C[C@@H](O)CN2C(=O)[C@@H](NC(=O)c2ccc(N3CCC(N4CCC(N5CCN6c7cc(-c8ccccc8O)nnc7NC[C@H]6C5)CC4)CC3)cc2)C(C)(C)C)cc1 [I-277] |
| > 90 | < 10 | > 90 | 1 to 10 | C (C (10-100 fold)) | 70 to 90 | 10 to 100 |  |  |  | C#Cc1ccc(CNC(=O)[C@@H]2C[C@@H](O)CN2C(=O)[C@@H](NC(=O)[C@H]2CC[C@H](CN3CCC(c4cnc(N5CCN6c7cc(-c8ccccc8O)nnc7NC[C@H]6C5)nc4)CC3)CC2)C(C)(C)C)cc1 [I-294] |
| > 90 | < 10 | > 90 | < 1 | C (C (10-100 fold)) | > 90 | 1 to 10 |  |  |  | Cc1ncsc1-c1ccc(CNC(=O)[C@@H]2C[C@@H](O)CN2C(=O)[C@@H](NC(=O)C2(F)CC2)C(C)(C)C)c(OCCN2CCC(c3cnc(N4CCN5c6cc(-c7ccccc7O)nnc6NC[C@H]5C4)nc3)CC2)c1 (single isomer, unassigned) [I-32] |
| < 50 | > 100 | < 50 | > 100 | C (C (10-100 fold)) | < 50 | > 100 |  |  |  | C#Cc1ccc(CNC(=O)[C@@H]2C[C@@H](O)CN2C(=O)[C@@H](N(CCN(C)C)C(=O)N2CC3(CC(N4CCC(c5cnc(N6CCc7[nH]c8nnc(-c9ccccc9O)cc8c7[C@H]6C)nc5)CC4)C3)C2)C(C)(C)C)cc1 [I-141] |
| > 90 | 50 to 100 | 70 to 90 | 10 to 100 | B (B (>100-500 fold)) | < 50 | > 100 |  |  |  | Cc1ncsc1-c1ccc(CNC(=O)[C@@H]2C[C@@H](O)CN2C(=O)[C@@H](NC(=O)[C@H]2CCC3(CC2)C[C@H](N2CCC(c4ccc(N5CCN6c7cc(-c8ccccc8O)nnc7NC[C@H]6C5)nc4)CC2)C3)C(C)(C)C)cc1 (stereo partly drawn) [I-148] |
| > 90 | 10 to 50 | 70 to 90 | < 1 | B (B (>100-500 fold)) | 50 to 70 | > 100 |  |  |  | C#Cc1ccc(CNC(=O)[C@@H]2C[C@@H](O)CN2C(=O)[C@@H](NC(=O)N2CCN(CC3CCN(c4cnc(N5CCN6c7cc(-c8ccccc8O)nnc7NC[C@H]6C5)nc4)CC3)CC2)C(C)(C)C)cc1 [I-163] |
|  | 10 to 50 |  | 1 to 10 | C (C (10-100 fold)) |  | 10 to 100 | A (A (>90% degradation)) | B (B (>70-90% degradation)) | C (C (50-70% degradation)) | Cc1ncsc1-c1ccc(CNC(=O)[C@@H]2C[C@@H](O)CN2C(=O)[C@@H](NC(=O)[C@H]2CCC3(CC2)C[C@H](N2CCC(c4ccc(N5CCN6c7cc(-c8ccccc8O)nnc7NC[C@H]6C5)nc4)CC2)C3)C(C)(C)C)cc1 (stereo partly drawn) [I-94] |
| 70 to 90 | > 100 | < 50 | 10 to 100 | B (B (>100-500 fold)) | 50 to 70 | > 100 |  |  |  | Cc1ncsc1-c1ccc(CNC(=O)[C@@H]2C[C@@H](O)CN2C(=O)[C@@H](NC(=O)C2(F)CC2)C(C)(C)C)c(O[C@H]2CC[C@@H](N3CCC(c4cnc(N5CCc6[nH]c7nnc(-c8ccccc8O)cc7c6[C@@H]5C)nc4)CC3)CC2)c1 (single isomer, unassigned) [I-34] |
| 70 to 90 | > 100 | 50 to 70 | 10 to 100 | B (B (>100-500 fold)) | < 50 | > 100 |  |  |  | C#Cc1ccc(CNC(=O)[C@@H]2C[C@@H](O)CN2C(=O)[C@@H](NC(=O)[C@H]2CC3(C2)C[C@H](N2CCC(N4CCC(N5CCN6c7cc(-c8ccccc8O)nnc7NC[C@H]6C5)CC4)CC2)C3)C(C)(C)CCO)cc1 (single isomer, unassigned) [I-364] |
| 50 to 70 | > 100 | < 50 | > 100 | C (C (10-100 fold)) | < 50 | > 100 |  |  |  | C#Cc1ccc(CNC(=O)[C@@H]2C[C@@H](O)CN2C(=O)[C@@H](NC(=O)N2CCO[C@@H](CN3CCC(N4CCC(N5CCN6c7cc(-c8ccccc8O)nnc7NC[C@H]6C5)CC4)CC3)C2)C(C)(C)C)cc1 [I-218] |
| 70 to 90 | > 100 | 50 to 70 | 10 to 100 | D (D (<10 fold)) | 70 to 90 | > 100 |  |  |  | C#Cc1ccc(CNC(=O)[C@@H]2C[C@@H](O)CN2C(=O)[C@@H](NC(=O)N2CC3(CC(N4CCC(c5cnc(N6CCc7[nH]c8nnc(-c9ccccc9O)cc8c7[C@@H]6C)s5)CC4)C3)C2)C(C)(C)C)cc1 [I-335] |

| SMILES | Dmax (SMARCA2 [1]) [%] | DC50 (SMARCA2 [1]; A549 cells) [nM] | Dmax (SMARCA2 [2]; 24 h) [%] | DC50 (SMARCA2 [2]; MV4-11 cells, 24 h) [nM] | Selectivity in MV411 (SMARCA2 [2]; MV4-11 cells) | Dmax (SMARCA4) [%] | DC50 (SMARCA4; MV4-11 cells) [nM] | SMARCA2 MSD A549 degradation 24 h: Average Dmax % (SMARCA2 [1]; A549 cells) | SMARCA2 MSD MV411 degradation 24 h: average Dmax % (SMARCA2 [2]; MV4-11 cells, 24 h) | SMARCA4 MSD MV411 degradation 24 h: average Dmax % (SMARCA4; MV4-11 cells) |
| --- | --- | --- | --- | --- | --- | --- | --- | --- | --- | --- |
| Cc1ncsc1-c1ccc(CNC(=O)[C@@H]2C[C@@H](O)CN2C(=O)C(c2cc(OCCCCN3CCC(c4cnc(N5CCN6c7cc(-c8ccccc8O)nnc7NC[C@@H]6C5)nc4)CC3)no2)C(C)C)cc1 (stereo partly drawn) [I-51, (2S,4R)-4-hydroxy-1-(2-(3-(4-(4-(2-((R)-2-(2-hydroxyphenyl)-6a,7,9,10-tetrahydro-5H-pyrazino[1′,2′:4,5]pyrazino[2,3-c]pyridazin-8(6H)-yl)pyrimidin-5-yl)piperidin-1-yl)butoxy)isoxazol-5-yl)-3-methylbutanoyl)-N-(4-(4-methylthiazol-5-yl)benzyl)pyrrolidine-2-carboxamide] | 70 to 90 | 10 to 50 | > 90 | < 1 | D (D (<10 fold)) | > 90 | 1 to 10 |  |  |  |
